Values joined by “and” are separate entries in the source; they are usually repeats but may differ in a detail not shown here. Equal entries are not always repeated. Inconclusive results and toxic doses are left out. The calls were made as follows: active = survival T/C of 150% or more; inactive = T/C below 125% in these data.
Test system: CD2F1 mice, L1210 leukemia ip, survival T/C
Test: NCI In Vivo Anticancer Drug Screen. Data for tumor model L1210 Leukemia (intraperitoneal) in CD2F1 (CDF1) mice
Settings: higher = longer survival
Procedure, shortened: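 Implant tumor; dose compound or vehicle; measure endpoint in both groups; report treated divided by control.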

[1] = endpoint: mean survival time, dose: 100.0 mg/kg/injection, schedule: Q04DX003 (ip), vehicle: saline with Tween-80
[2] = endpoint: mean survival time, dose: 200.0 mg/kg/injection, schedule: Q04DX003 (ip), vehicle: saline with Tween-80
[3] = endpoint: mean survival time, dose: 400.0 mg/kg/injection, schedule: Q04DX003 (ip), vehicle: saline with Tween-80
[4] = endpoint: mean survival time, dose: 6.25 mg/kg/injection, schedule: Q01DX009 (ip), vehicle: saline with Tween-80
[5] = endpoint: mean survival time, dose: 12.5 mg/kg/injection, schedule: Q01DX009 (ip), vehicle: saline with Tween-80
[6] = endpoint: mean survival time, dose: 50.0 mg/kg/injection, schedule: Q01DX009 (ip), vehicle: saline with Tween-80
[7] = endpoint: mean survival time, dose: 100.0 mg/kg/injection, schedule: Q01DX009 (ip), vehicle: saline with Tween-80
[8] = endpoint: mean survival time, dose: 200.0 mg/kg/injection, schedule: Q01DX009 (ip), vehicle: saline with Tween-80
[9] = endpoint: mean survival time, dose: 400.0 mg/kg/injection, schedule: Q01DX009 (ip), vehicle: saline with Tween-80
[10] = endpoint: mean survival time, dose: 100.0 mg/kg/injection, schedule: Q01DX001 (ip), vehicle: saline with Tween-80
[11] = endpoint: mean survival time, dose: 200.0 mg/kg/injection, schedule: Q01DX001 (ip), vehicle: saline with Tween-80
[12] = endpoint: mean survival time, dose: 400.0 mg/kg/injection, schedule: Q01DX001 (ip), vehicle: saline with Tween-80

Measured: T/C

CSc1nc(NC2OC(CO)C(O)C(O)C2O)cc(=O)[nH]1 (configuration not stated)
inactive: endpoint: median survival time, dose: 12.5 mg/kg/injection, schedule: Q01DX005 (ip), vehicle: saline 102 % of control | endpoint: median survival time, dose: 25.0 mg/kg/injection, schedule: Q01DX005 (ip), vehicle: saline 100 % of control | endpoint: median survival time, dose: 50.0 mg/kg/injection, schedule: Q01DX005 (ip), vehicle: saline 100 % of control | endpoint: median survival time, dose: 100.0 mg/kg/injection, schedule: Q01DX005 (ip), vehicle: saline 100 % of control | endpoint: median survival time, dose: 200.0 mg/kg/injection, schedule: Q01DX005 (ip), vehicle: saline 102 % of control

CCOC(=O)N(Cl)Cl
inactive: endpoint: mean survival time, dose: 12.5 mg/kg/injection, schedule: Q04DX003 (ip), vehicle: saline 102 % of control

COc1ccc(/C=C(\C)[N+](=O)[O-])cc1OC
inactive: endpoint: mean survival time, dose: 12.5 mg/kg/injection, schedule: Q01DX009 (ip), vehicle: water 105 % of control | endpoint: mean survival time, dose: 25.0 mg/kg/injection, schedule: Q01DX009 (ip), vehicle: water 93 % of control | endpoint: mean survival time, dose: 50.0 mg/kg/injection, schedule: Q01DX009 (ip), vehicle: water 93 % of control

OCC1C2C=CC(c3ccccc32)C1CO (configuration not stated)
inactive: endpoint: mean survival time, dose: 50.0 mg/kg/injection, schedule: Q04DX002 (ip), vehicle: saline with Tween-80 106 % of control | endpoint: mean survival time, dose: 100.0 mg/kg/injection, schedule: Q04DX002 (ip), vehicle: saline with Tween-80 88 % of control | endpoint: mean survival time, dose: 200.0 mg/kg/injection, schedule: Q04DX002 (ip), vehicle: saline with Tween-80 95 % of control

CC1OC(c2ccccc2)OC1C (configuration not stated)
inactive: [1] 94 % of control | [2] 92 % of control | [3] 90 % of control

CO[Si](c1ccccc1)(c1ccccc1)c1cccc2ccccc12
inactive: endpoint: mean survival time, dose: 75.0 mg/kg/injection, schedule: Q04DX003 (ip), vehicle: saline 89 % of control | endpoint: mean survival time, dose: 150.0 mg/kg/injection, schedule: Q04DX003 (ip), vehicle: saline 91 % of control | endpoint: mean survival time, dose: 300.0 mg/kg/injection, schedule: Q04DX003 (ip), vehicle: saline 95 % of control

N#Cc1[nH]nc2ncnc(N)c12
inactive: [4] 100 % of control | [5] 100 % of control | endpoint: mean survival time, dose: 25.0 mg/kg/injection, schedule: Q01DX009 (ip), vehicle: saline with Tween-80 93 % of control | [6] 91 % of control and 98 % of control

COc1ccc(CCN2C(=O)C=CC2=O)cc1OC
inactive: endpoint: mean survival time, dose: 5.0 mg/kg/injection, schedule: Q01DX001 (ip), vehicle: saline 94 % of control | endpoint: mean survival time, dose: 5.0 mg/kg/injection, schedule: Q01DX009 (ip), vehicle: saline 94 % of control | endpoint: mean survival time, dose: 10.0 mg/kg/injection, schedule: Q01DX001 (ip), vehicle: saline 94 % of control | endpoint: mean survival time, dose: 10.0 mg/kg/injection, schedule: Q01DX009 (ip), vehicle: saline 97 % of control | endpoint: mean survival time, dose: 20.0 mg/kg/injection, schedule: Q01DX001 (ip), vehicle: saline 91 % of control

CN(C)c1cc2c3c(c1)CCCN3CCC2
inactive: endpoint: mean survival time, dose: 3.13 mg/kg/injection, schedule: Q01DX009 (ip), vehicle: saline 98 % of control | endpoint: mean survival time, dose: 6.25 mg/kg/injection, schedule: Q01DX009 (ip), vehicle: saline 109 % of control | endpoint: mean survival time, dose: 12.5 mg/kg/injection, schedule: Q01DX009 (ip), vehicle: saline 96 % of control

COC(=O)C(=O)Cc1cc(OC)cc(=O)o1
inactive: [1] 100 % of control | [2] 101 % of control | [3] 95 % of control

CC(C)(C)c1cccc(OS(=O)(=O)c2cccc([N+](=O)[O-])c2)c1
inactive: [7] 94 % of control | [8] 94 % of control | [9] 94 % of control

CCOc1ccc(/C=N/NC(=O)c2ccccc2NC(=O)C2CC2)cc1OC
inactive: [10] 98 % of control | [11] 94 % of control | [12] 94 % of control

Nc1ncnc2c1nnn2C1OC(CO)C(O)C1O (configuration not stated)
inactive: endpoint: mean survival time, dose: 10.0 mg/kg/injection, schedule: Q01DX009 (ip), vehicle: Klucel (hydroxypropylcellulose) (HPC) 110 % of control | endpoint: mean survival time, dose: 15.0 mg/kg/injection, schedule: Q01DX009 (ip), vehicle: Klucel (hydroxypropylcellulose) (HPC) 107 % of control | endpoint: mean survival time, dose: 28.0 mg/kg/injection, schedule: Q01DX009 (ip), vehicle: Klucel (hydroxypropylcellulose) (HPC) 121 % of control | endpoint: mean survival time, dose: 63.0 mg/kg/injection, schedule: Q01DX009 (ip), vehicle: Klucel (hydroxypropylcellulose) (HPC) 115 % of control

CCOc1ccc(-n2c(O)c(N=Nc3ccccc3)c(=O)n(-c3ccc(OC)cc3)c2=S)cc1
inactive: [10] 101 % of control | [11] 92 % of control | [12] 90 % of control

C/C(=N/O)c1cc(CN(C)C)oc1C
inactive: [6] 92 % of control | [10] 113 % of control | [7] 90 % of control | [11] 101 % of control | [8] 91 % of control

CC(=O)C(C(C)=O)C1C=CC=CC=C1
inactive: [6] 100 % of control | [8] 94 % of control

COc1ccc2c(c1)C1(C)CCC(=O)C(C)C1CC2 (configuration not stated)
inactive: endpoint: mean survival time, dose: 100.0 mg/kg/injection, schedule: Q01DX001 (ip), vehicle: saline 94 % of control | endpoint: mean survival time, dose: 200.0 mg/kg/injection, schedule: Q01DX001 (ip), vehicle: saline 96 % of control | endpoint: mean survival time, dose: 400.0 mg/kg/injection, schedule: Q01DX001 (ip), vehicle: saline 96 % of control

O.[Cl][Pt].[S-]CCN1CCCCC1
inactive: endpoint: mean survival time, dose: 12.5 mg/kg/injection, schedule: Q04DX003 (ip), vehicle: distilled water + Tween-80 96 % of control | endpoint: mean survival time, dose: 25.0 mg/kg/injection, schedule: Q04DX003 (ip), vehicle: distilled water + Tween-80 100 % of control | endpoint: mean survival time, dose: 50.0 mg/kg/injection, schedule: Q04DX003 (ip), vehicle: distilled water + Tween-80 98 % of control | endpoint: mean survival time, dose: 100.0 mg/kg/injection, schedule: Q04DX003 (ip), vehicle: distilled water + Tween-80 90 % of control | endpoint: mean survival time, dose: 200.0 mg/kg/injection, schedule: Q04DX003 (ip), vehicle: distilled water + Tween-80 93 % of control

O=C(c1ccc(F)cc1)c1ccc([N+](=O)[O-])cc1
inactive: [7] 103 % of control | [8] 102 % of control | [9] 97 % of control

CC1=CC(O)(C2(O)C=C(C)CC(C)(C)C2)CC(C)(C)C1 (configuration not stated)
inactive: endpoint: mean survival time, dose: 100.0 mg/kg/injection, schedule: Q01DX009 (ip), vehicle: other 102 % of control | endpoint: mean survival time, dose: 100.0 mg/kg/injection, schedule: Q04DX003 (ip), vehicle: other 102 % of control | endpoint: mean survival time, dose: 200.0 mg/kg/injection, schedule: Q01DX009 (ip), vehicle: other 90 % of control | endpoint: mean survival time, dose: 200.0 mg/kg/injection, schedule: Q04DX003 (ip), vehicle: other 96 % of control | endpoint: mean survival time, dose: 400.0 mg/kg/injection, schedule: Q01DX009 (ip), vehicle: other 88 % of control | endpoint: mean survival time, dose: 400.0 mg/kg/injection, schedule: Q04DX003 (ip), vehicle: other 94 % of control

Cc1cc(NC(=O)Oc2ccccc2)ccc1S(=O)(=O)F
inactive: endpoint: mean survival time, dose: 50.0 mg/kg/injection, schedule: Q01DX009 (ip), vehicle: saline 98 % of control | endpoint: mean survival time, dose: 100.0 mg/kg/injection, schedule: Q01DX009 (ip), vehicle: saline 94 % of control | endpoint: mean survival time, dose: 200.0 mg/kg/injection, schedule: Q01DX009 (ip), vehicle: saline 98 % of control

C=CC1C2C=CC(CC2)C1O (configuration not stated)
inactive: [1] 98 % of control | [2] 101 % of control | [3] 104 % of control

Cc1ccc(NC(=O)Oc2cc(C)c(Cl)cc2C)cc1C
inactive: [6] 100 % of control | [7] 100 % of control | [8] 92 % of control

CCc1cccc[n+]1Cc1ccccc1
inactive: endpoint: mean survival time, dose: 3.13 mg/kg/injection, schedule: Q01DX009 (ip), vehicle: saline with Tween-80 95 % of control | [4] 91 % of control | [5] 98 % of control

ON=c1c2ccccc2oc2ccccc12
inactive: endpoint: mean survival time, dose: 100.0 mg/kg/injection, schedule: Q04DX002 (ip), vehicle: Klucel (hydroxypropylcellulose) (HPC) 92 % of control | endpoint: mean survival time, dose: 200.0 mg/kg/injection, schedule: Q04DX002 (ip), vehicle: Klucel (hydroxypropylcellulose) (HPC) 100 % of control

C(=N\Nc1nc2ccccc2s1)/c1ccc2ccccc2n1
inactive: endpoint: mean survival time, dose: 100.0 mg/kg/injection, schedule: Q04DX003 (ip), vehicle: Klucel (hydroxypropylcellulose) (HPC) 95 % of control | endpoint: mean survival time, dose: 200.0 mg/kg/injection, schedule: Q04DX003 (ip), vehicle: Klucel (hydroxypropylcellulose) (HPC) 94 % of control | endpoint: mean survival time, dose: 400.0 mg/kg/injection, schedule: Q04DX003 (ip), vehicle: Klucel (hydroxypropylcellulose) (HPC) 94 % of control

CC1CCN1Cc1ccccc1 (configuration not stated)
inactive: endpoint: mean survival time, dose: 12.5 mg/kg/injection, schedule: Q01DX009 (ip), vehicle: acetone 98 % of control | endpoint: mean survival time, dose: 25.0 mg/kg/injection, schedule: Q01DX009 (ip), vehicle: acetone 98 % of control | endpoint: mean survival time, dose: 50.0 mg/kg/injection, schedule: Q01DX009 (ip), vehicle: acetone 95 % of control

N#C[S-].N#C[S-].[Au+3].[Au+3].[CH3-].[CH3-].[CH3-].[CH3-]
inactive: [1] 96 % of control | [2] 98 % of control
